# Assay results: PubChem BioAssay AID296 (DTP/NCI, 2004)
# Values joined by “and” are separate entries in the source; they are usually repeats but may differ in a detail not shown here. Equal values may be shown once. Results filed as inconclusive are left out.
# Test system: MX-1 breast xenograft, nude mice, tumor weight T/C
# Assay: NCI In Vivo Anticancer Drug Screen. Data for tumor model Human Mammary Carcinoma MX-1 Xenograft (intrarenal inoculation) in NU/NU Swiss (nude) mice
# Conditions: endpoint: mean tumor weight change, higher = larger tumour
# Method: The antitumor activity of compounds was measured in mice bearing transplantable tumors. Survival or tumor size were measured and the results are expressed as the measurement made in the treated group (T) divided by the measurement made in the vehicle treated control group (C). The tumor model used in this assay is Human Mammary Carcinoma MX-1 Xenograft (intrarenal inoculation) in NU/NU Swiss (nude) mice
# [1] = dose: 50.0 mg/kg/injection, schedule: Q04DX003 (sc), vehicle: Klucel (hydroxypropylcellulose) (HPC)
# [2] = dose: 100.0 mg/kg/injection, schedule: Q04DX003 (sc), vehicle: Klucel (hydroxypropylcellulose) (HPC)
# [3] = dose: 150.0 mg/kg/injection, schedule: Q04DX003 (sc), vehicle: saline with Tween-80
# [4] = dose: 300.0 mg/kg/injection, schedule: Q04DX003 (sc), vehicle: saline with Tween-80
# [5] = dose: 600.0 mg/kg/injection, schedule: Q04DX003 (sc), vehicle: saline with Tween-80
# [6] = dose: 1200.0 mg/kg/injection, schedule: Q04DX003 (sc), vehicle: saline with Tween-80
# [7] = dose: 150.0 mg/kg/injection, schedule: Q04DX003 (sc), vehicle: Klucel (hydroxypropylcellulose) (HPC)
# [8] = dose: 300.0 mg/kg/injection, schedule: Q04DX003 (sc), vehicle: Klucel (hydroxypropylcellulose) (HPC)
# [9] = dose: 600.0 mg/kg/injection, schedule: Q04DX003 (sc), vehicle: Klucel (hydroxypropylcellulose) (HPC)
# [10] = dose: 2400.0 mg/kg/injection, schedule: Q04DX003 (sc), vehicle: saline with Tween-80
# [11] = dose: 12.5 mg/kg/injection, schedule: Q01DX010 (sc), vehicle: saline with Tween-80
# [12] = dose: 25.0 mg/kg/injection, schedule: Q01DX010 (sc), vehicle: saline with Tween-80
# [13] = dose: 50.0 mg/kg/injection, schedule: Q01DX010 (sc), vehicle: saline with Tween-80
# [14] = dose: 100.0 mg/kg/injection, schedule: Q01DX010 (sc), vehicle: water
# [15] = dose: 200.0 mg/kg/injection, schedule: Q01DX010 (sc), vehicle: water
structure (smiles),measurement,setting,value
COc1cccc2c1C(=O)c1c(O)c3c(c(O)c1C2=O)CC(O)(/C(C)=N/NC(=O)CCCCC(=O)N/N=C(\C)C1(O)Cc2c(O)c4c(c(O)c2C(OC2CC(N)C(O)C(C)O2)C1)C(=O)c1c(OC)cccc1C4=O)CC3OC1CC(N)C(O)C(C)O1 (configuration not stated),T/C,"dose: 50.0 mg/kg/injection, schedule: Q04DX003 (sc), vehicle: water",62 % of control
same,T/C,"dose: 100.0 mg/kg/injection, schedule: Q04DX003 (sc), vehicle: water",2 % of control
Nc1ncn(C2CC(O)C(CO)O2)c(=O)n1 (configuration not stated),T/C,"dose: 0.2 mg/kg/injection, schedule: Q01DX010 (sc), vehicle: saline",114 % of control
CC(=O)NC(CCc1ccc(Cl)c(Cl)c1)c1cccc(O)c(=O)c1 (configuration not stated),T/C,[1],95 % of control
same,T/C,[2],69 % of control
same,T/C,"dose: 200.0 mg/kg/injection, schedule: Q04DX003 (sc), vehicle: Klucel (hydroxypropylcellulose) (HPC)",90 % of control
same,T/C,"dose: 400.0 mg/kg/injection, schedule: Q04DX003 (sc), vehicle: Klucel (hydroxypropylcellulose) (HPC)",119 % of control
CNC(=O)SCC(N)C(=O)O (configuration not stated),T/C,"dose: 112.5 mg/kg/injection, schedule: Q04DX003 (ip), vehicle: saline",86 % of control
same,T/C,"dose: 225.0 mg/kg/injection, schedule: Q04DX003 (ip), vehicle: saline",67 % of control
same,T/C,"dose: 450.0 mg/kg/injection, schedule: Q04DX003 (ip), vehicle: saline",27 % of control
same,T/C,"dose: 900.0 mg/kg/injection, schedule: Q04DX003 (ip), vehicle: saline",17 % of control
CNc1nc2c(N)ncnc2n1C1OC(CO)C(O)C1O (configuration not stated),T/C,"dose: 12.5 mg/kg/injection, schedule: Q04DX003 (sc), vehicle: saline",111 % of control
same,T/C,"dose: 25.0 mg/kg/injection, schedule: Q04DX003 (sc), vehicle: saline",92 % of control
same,T/C,"dose: 50.0 mg/kg/injection, schedule: Q04DX003 (sc), vehicle: saline",60 % of control
O=c1[nH]cnc2[nH]ncc12,T/C,"dose: 150.0 mg/kg/injection, schedule: Q04DX003 (sc), vehicle: suspension in saline",46 % of control
same,T/C,"dose: 300.0 mg/kg/injection, schedule: Q04DX003 (sc), vehicle: suspension in saline",44 % of control
same,T/C,"dose: 600.0 mg/kg/injection, schedule: Q04DX003 (sc), vehicle: suspension in saline",119 % of control
same,T/C,"dose: 1200.0 mg/kg/injection, schedule: Q04DX003 (sc), vehicle: suspension in saline",112 % of control
O=S(=O)(N=N/C=C1\C=CC=CN1O)c1cccs1,T/C,"dose: 75.0 mg/kg/injection, schedule: Q04DX003 (sc), vehicle: saline with Tween-80",99 % of control
same,T/C,[3],77 % of control
same,T/C,[4],72 % of control
Nc1ccc2c(c1)CN1C(=O)c3ccccc3C1=N2,T/C,[4],203 % of control
same,T/C,[5],168 % of control
same,T/C,[6],76 % of control
O=C1c2cccc3cc([N+](=O)[O-])cc(c23)C(=O)N1CCN1CCCC1,T/C,"dose: 18.0 mg/kg/injection, schedule: Q04DX003 (sc), vehicle: saline with Tween-80",120 % of control
same,T/C,"dose: 36.0 mg/kg/injection, schedule: Q04DX003 (sc), vehicle: saline with Tween-80",96 % of control
same,T/C,"dose: 72.0 mg/kg/injection, schedule: Q04DX003 (sc), vehicle: saline with Tween-80",85 % of control
Cc1ccc(S(=O)(=O)N/N=C/C(Br)=C(/Br)C(=O)O)cc1,T/C,"dose: 2.5 mg/kg/injection, schedule: Q04DX003 (sc), vehicle: saline",95 % of control
same,T/C,"dose: 5.0 mg/kg/injection, schedule: Q04DX003 (sc), vehicle: saline",100 % of control
same,T/C,"dose: 10.0 mg/kg/injection, schedule: Q04DX003 (sc), vehicle: saline",100 % of control
same,T/C,"dose: 20.0 mg/kg/injection, schedule: Q04DX003 (sc), vehicle: saline",78 % of control
same,T/C,[7],80 % of control
same,T/C,[8],71 % of control
same,T/C,[9],26 % of control
C1CCC2OCCOCCOC3CCCCC3OCCOCCOC2C1 (configuration not stated),T/C,"dose: 9.38 mg/kg/injection, schedule: Q04DX003 (sc), vehicle: Klucel (hydroxypropylcellulose) (HPC)",62 % of control
same,T/C,"dose: 18.75 mg/kg/injection, schedule: Q04DX003 (sc), vehicle: Klucel (hydroxypropylcellulose) (HPC)",87 % of control
same,T/C,"dose: 37.5 mg/kg/injection, schedule: Q04DX003 (sc), vehicle: Klucel (hydroxypropylcellulose) (HPC)",64 % of control
same,T/C,"dose: 75.0 mg/kg/injection, schedule: Q04DX003 (sc), vehicle: Klucel (hydroxypropylcellulose) (HPC)",46 % of control
CCOC(=O)C1(c2ccccc2)C(=O)Oc2ccccc21 (configuration not stated),T/C,[4],99 % of control
same,T/C,[5],103 % of control
same,T/C,[6],101 % of control
same,T/C,[10],99 % of control
O=CC(S)CO (configuration not stated),T/C,"dose: 100.0 mg/kg/injection, schedule: Q04DX003 (sc), vehicle: suspension in saline",151 % of control
CS(=O)(=O)OCCCCOS(C)(=O)=O,T/C,"dose: 6.25 mg/kg/injection, schedule: Q01DX010 (sc), vehicle: saline with Tween-80",114 % of control
same,T/C,[11],68 % of control
same,T/C,[12],49 % of control
Nc1nc(N)c(N=O)c(Nc2ccc(Br)cc2)n1,T/C,[4],42 % of control
same,T/C,[5],42 % of control
same,T/C,[6],38 % of control
same,T/C,[10],40 % of control
O=C(O[Si](Cc1ccccc1)(Cc1ccccc1)Cc1ccccc1)N(CCCl)CCCl,T/C,"dose: 100.0 mg/kg/injection, schedule: Q04DX003 (sc), vehicle: saline with Tween-80",78 % of control
same,T/C,"dose: 200.0 mg/kg/injection, schedule: Q04DX003 (sc), vehicle: saline with Tween-80",29 % of control
ClC(Cl)(Cl)C1=NCc2nnn(Cc3ccccc3)c2N1,T/C,[4],92 % of control
same,T/C,[5],61 % of control
same,T/C,[6],66 % of control
same,T/C,[10],101 % of control
COC12C(COC(N)=O)C3=C(C(=O)C(C)=C(N)C3=O)N1CC1C2N1C (configuration not stated),T/C,"dose: 8.0 mg/kg/injection, schedule: Q01DX010 (sc), vehicle: saline",-96 % of control and -95 % of control
CNC(=O)n1c(N)nc(-c2ccccc2)c1-c1ccccc1,T/C,[3],105 % of control
same,T/C,[4],62 % of control
same,T/C,[5],62 % of control
same,T/C,[6],68 % of control
c1ccc2c(c1)nnn1c3cnccc3nc21,T/C,[11],36 % of control
same,T/C,[12],86 % of control
same,T/C,[13],63 % of control
O=C(O)CSc1nc(-c2ccccc2)c(-c2ccccc2)n1-c1ccccn1,T/C,"dose: 50.0 mg/kg/injection, schedule: Q01DX010 (sc), vehicle: water",196 % of control
same,T/C,[14],50 % of control
same,T/C,[15],78 % of control
COC1=C(NC(C)=O)C(=O)c2nc(-c3nc(C(=O)O)c(C)c(-c4ccc(OC)c(OC)c4O)c3N)ccc2C1=O,T/C,[1],118 % of control
same,T/C,[2],47 % of control
Cc1ccc(NCCN(C)C)c2c(=O)c3cc(O)ccc3sc12,T/C,[7],54 % of control
same,T/C,[8],62 % of control
same,T/C,[9],120 % of control
same,T/C,"dose: 1200.0 mg/kg/injection, schedule: Q04DX003 (sc), vehicle: Klucel (hydroxypropylcellulose) (HPC)",75 % of control
CCCCNC(C)C1(O)Cc2c(O)c3c(c(O)c2C(OC2CC(N)C(O)C(C)O2)C1)C(=O)c1c(OC)cccc1C3=O (configuration not stated),T/C,[14],115 % of control
same,T/C,[15],75 % of control
c1cc[c]([Sn][c]2ccccc2)cc1,T/C,"dose: 20.0 mg/kg/injection, schedule: Q01DX010 (sc), vehicle: saline",112 % of control
same,T/C,"dose: 40.0 mg/kg/injection, schedule: Q01DX010 (sc), vehicle: saline",84 % of control
same,T/C,"dose: 80.0 mg/kg/injection, schedule: Q01DX010 (sc), vehicle: saline",74 % of control
same,T/C,"dose: 160.0 mg/kg/injection, schedule: Q01DX010 (sc), vehicle: saline",115 % of control
CC(=O)O[C@@H]1[C@@H](O)C2=C3[C@]4(C)[C@@H]1C(C)(C)C(=O)C[C@@H]4[C@]3(O)[C@H](OC(C)=O)[C@@]1(C[C@@H]1C)C2=O,T/C,[11],106 % of control
same,T/C,[12],114 % of control
same,T/C,[13],319 % of control
